# According to PubChem BioAssay AID330 (DTP/NCI, 2004):
# Where “and” joins values, the source holds several entries; their conditions need not be identical. Equal values may be shown once. Inconclusive results and toxic doses are left out.
# System: P388 leukemia ip, CD2F1 mice, survival T/C
# Assay: NCI In Vivo Anticancer Drug Screen. Data for tumor model P388 Leukemia (intraperitoneal) in CD2F1 (CDF1) mice
# Settings: endpoint: median survival time, higher = longer survival
# Outline: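 Mice carrying the transplanted tumor received test compound or vehicle. Survival was recorded in each group, and the value is the treated-group measurement divided by that of the vehicle-treated control group.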
# [1] = dose: 60.0 mg/kg/injection, schedule: Q01DX005 (ip), vehicle: saline with Tween-80
# [2] = dose: 240.0 mg/kg/injection, schedule: Q01DX005 (ip), vehicle: saline with Tween-80
# [3] = dose: 12.5 mg/kg/injection, schedule: Q01DX005 (ip), vehicle: Klucel (hydroxypropylcellulose) (HPC)
# [4] = dose: 25.0 mg/kg/injection, schedule: Q01DX005 (ip), vehicle: Klucel (hydroxypropylcellulose) (HPC)
# [5] = dose: 50.0 mg/kg/injection, schedule: Q01DX005 (ip), vehicle: Klucel (hydroxypropylcellulose) (HPC)
# [6] = dose: 100.0 mg/kg/injection, schedule: Q01DX005 (ip), vehicle: Klucel (hydroxypropylcellulose) (HPC)
# [7] = dose: 200.0 mg/kg/injection, schedule: Q01DX005 (ip), vehicle: Klucel (hydroxypropylcellulose) (HPC)
# [8] = dose: 50.0 mg/kg/injection, schedule: Q01DX009 (ip), vehicle: Klucel (hydroxypropylcellulose) (HPC)
# [9] = dose: 100.0 mg/kg/injection, schedule: Q01DX009 (ip), vehicle: Klucel (hydroxypropylcellulose) (HPC)
compound,measurement,setting,value
CSC1=NC=C(C#N)C2=NC(c3ccc(Cl)cc3)NN12 (stereo not given),T/C,[1],90 % of control
same,T/C,"dose: 120.0 mg/kg/injection, schedule: Q01DX005 (ip), vehicle: saline with Tween-80",93 % of control
same,T/C,[2],94 % of control
CCOC(=O)CC(Cc1cc(OC)ccc1OC)(C(C)=O)C(C)=O,T/C,"dose: 25.0 mg/kg/injection, schedule: Q01DX009 (ip), vehicle: other",100 % of control
same,T/C,"dose: 50.0 mg/kg/injection, schedule: Q01DX009 (ip), vehicle: other",100 % of control
same,T/C,"dose: 100.0 mg/kg/injection, schedule: Q01DX009 (ip), vehicle: other",100 % of control
same,T/C,"dose: 200.0 mg/kg/injection, schedule: Q01DX009 (ip), vehicle: other",98 % of control
same,T/C,"dose: 400.0 mg/kg/injection, schedule: Q01DX009 (ip), vehicle: other",100 % of control
O=C1C=C(NCCNCCO)C(=O)c2ccccc21,T/C,"dose: 6.25 mg/kg/injection, schedule: Q01DX009 (ip), vehicle: distilled water + Tween-80",96 % of control
same,T/C,"dose: 12.5 mg/kg/injection, schedule: Q01DX009 (ip), vehicle: distilled water + Tween-80",98 % of control and 95 % of control
same,T/C,"dose: 25.0 mg/kg/injection, schedule: Q01DX009 (ip), vehicle: distilled water + Tween-80",109 % of control and 95 % of control
same,T/C,"dose: 50.0 mg/kg/injection, schedule: Q01DX009 (ip), vehicle: distilled water + Tween-80",111 % of control and 94 % of control
same,T/C,"dose: 100.0 mg/kg/injection, schedule: Q01DX009 (ip), vehicle: distilled water + Tween-80",88 % of control and 97 % of control
O=C(Oc1ccc(Cl)cc1Cl)C(Cl)=C(Cl)Cl,T/C,"dose: 50.0 mg/kg/injection, schedule: Q01DX009 (ip), vehicle: saline",97 % of control
same,T/C,"dose: 100.0 mg/kg/injection, schedule: Q01DX009 (ip), vehicle: saline",111 % of control
same,T/C,"dose: 200.0 mg/kg/injection, schedule: Q01DX009 (ip), vehicle: saline",101 % of control
CC1CC12C(=O)C1=C(C(=O)C2O)C2(C)CCCC(C)(COC=O)C2C(O)C1OC=O (stereo not given),T/C,"dose: 6.25 mg/kg/injection, schedule: Q01DX005 (ip), vehicle: Klucel (hydroxypropylcellulose) (HPC)",105 % of control
same,T/C,[3],105 % of control
same,T/C,[4],115 % of control
same,T/C,[5],101 % of control
CC1(C)Cc2[nH]c3ccccc3c(=O)c2-c2nc3ccccc3c(=O)n21,T/C,[3],98 % of control
same,T/C,[4],88 % of control
same,T/C,[5],90 % of control
same,T/C,[6],98 % of control
same,T/C,[7],116 % of control
CCOC(=O)C(=CNc1ccccc1-n1cccc1)C(=O)OCC,T/C,[5],100 % of control
same,T/C,[6],108 % of control
same,T/C,[7],93 % of control
N#CNC(=O)c1ccc(C(=O)NC#N)cc1,T/C,"dose: 50.0 mg/kg/injection, schedule: Q01DX005 (ip), vehicle: saline with Tween-80",98 % of control
same,T/C,"dose: 100.0 mg/kg/injection, schedule: Q01DX005 (ip), vehicle: saline with Tween-80",98 % of control
same,T/C,"dose: 200.0 mg/kg/injection, schedule: Q01DX005 (ip), vehicle: saline with Tween-80",90 % of control
CCOC(=O)CCCCCNC(=O)N1c2c(nc(N)[nH]c2=O)NCC1CNc1ccc(C(=O)NC(CCC(=O)O)C(=O)O)cc1 (stereo not given),T/C,"dose: 100.0 mg/kg/injection, schedule: Q01DX009 (ip), vehicle: sodium bicarbonate",97 % of control
same,T/C,"dose: 200.0 mg/kg/injection, schedule: Q01DX009 (ip), vehicle: sodium bicarbonate",91 % of control
same,T/C,"dose: 400.0 mg/kg/injection, schedule: Q01DX009 (ip), vehicle: sodium bicarbonate",97 % of control
CC1(c2ccc(Cl)cc2)OC(=O)CC(=O)O1,T/C,[5],99 % of control
same,T/C,[6],100 % of control
same,T/C,[7],100 % of control
COc1ccccc1NC(=O)Cc1nc(=O)[nH]c(=O)[nH]1,T/C,"dose: 12.5 mg/kg/injection, schedule: Q01DX009 (ip), vehicle: Klucel (hydroxypropylcellulose) (HPC)",100 % of control
same,T/C,"dose: 25.0 mg/kg/injection, schedule: Q01DX009 (ip), vehicle: Klucel (hydroxypropylcellulose) (HPC)",90 % of control
same,T/C,[8],101 % of control
same,T/C,[9],102 % of control
same,T/C,"dose: 200.0 mg/kg/injection, schedule: Q01DX009 (ip), vehicle: Klucel (hydroxypropylcellulose) (HPC)",96 % of control
COC1/C=C/C=C(/C)Cc2cc(O)c(Cl)c(c2)N(C)C(=O)CC(OC(=O)C(C)C)C2(C)OC2C(C)C2CC1(O)NC(=O)O2 (stereo not given),T/C,"dose: 50.0 micrograms/kg/injection, schedule: Q01DX009 (ip), vehicle: saline + alcohol",153 % of control
same,T/C,"dose: 100.0 micrograms/kg/injection, schedule: Q01DX009 (ip), vehicle: saline + alcohol",177 % of control and 190 % of control
same,T/C,"dose: 200.0 micrograms/kg/injection, schedule: Q01DX009 (ip), vehicle: saline + alcohol",185 % of control and 221 % of control
same,T/C,"dose: 400.0 micrograms/kg/injection, schedule: Q01DX009 (ip), vehicle: saline + alcohol",177 % of control and 230 % of control
same,T/C,"dose: 800.0 micrograms/kg/injection, schedule: Q01DX009 (ip), vehicle: saline + alcohol",192 % of control and 205 % of control
same,T/C,"dose: 1000.0 micrograms/kg/injection, schedule: Q01DX009 (ip), vehicle: saline + alcohol",182 % of control
CN(C)C(=S)S/C=C\C(=O)O,T/C,"dose: 6.25 mg/kg/injection, schedule: Q04DX003 (ip), vehicle: Klucel (hydroxypropylcellulose) (HPC)",97 % of control
same,T/C,"dose: 12.5 mg/kg/injection, schedule: Q04DX003 (ip), vehicle: Klucel (hydroxypropylcellulose) (HPC)",97 % of control
same,T/C,"dose: 25.0 mg/kg/injection, schedule: Q04DX003 (ip), vehicle: Klucel (hydroxypropylcellulose) (HPC)",100 % of control
same,T/C,"dose: 400.0 mg/kg/injection, schedule: Q04DX003 (ip), vehicle: Klucel (hydroxypropylcellulose) (HPC)",88 % of control
Cc1ccc(Cl)c2ccccc12,T/C,"dose: 50.0 mg/kg/injection, schedule: Q01DX009 (ip), vehicle: saline with Tween-80",113 % of control
same,T/C,"dose: 100.0 mg/kg/injection, schedule: Q01DX009 (ip), vehicle: saline with Tween-80",108 % of control
COC1=Cc2c(O)c3c(c(O)c2C(OC2CC(N)C(O)C(C)O2)C1)C(=O)c1c(OC)cccc1C3=O (stereo not given),T/C,"dose: 3.13 mg/kg/injection, schedule: Q04DX003 (ip), vehicle: water",98 % of control
same,T/C,"dose: 6.25 mg/kg/injection, schedule: Q04DX003 (ip), vehicle: water",98 % of control
same,T/C,"dose: 12.5 mg/kg/injection, schedule: Q04DX003 (ip), vehicle: water",102 % of control
same,T/C,"dose: 25.0 mg/kg/injection, schedule: Q04DX003 (ip), vehicle: water",109 % of control
same,T/C,"dose: 50.0 mg/kg/injection, schedule: Q04DX003 (ip), vehicle: water",107 % of control
CC1(C)/C=C/C2=Nc3cc(Br)c(Br)c(Br)c3C23CC(=O)N3/C=C(\Cl)c2nc(Br)[nH]c21 (stereo not given),T/C,"dose: 0.7 mg/kg/injection, schedule: Q01DX005 (ip), vehicle: Klucel (hydroxypropylcellulose) (HPC)",106 % of control
same,T/C,"dose: 1.4 mg/kg/injection, schedule: Q01DX005 (ip), vehicle: Klucel (hydroxypropylcellulose) (HPC)",101 % of control
same,T/C,"dose: 2.8 mg/kg/injection, schedule: Q01DX005 (ip), vehicle: Klucel (hydroxypropylcellulose) (HPC)",97 % of control
same,T/C,"dose: 5.6 mg/kg/injection, schedule: Q01DX005 (ip), vehicle: Klucel (hydroxypropylcellulose) (HPC)",112 % of control
CCOc1cc2c(cc1Cc1c(OC)cc(OC)cc1OC)OCO2,T/C,[1],90 % of control
same,T/C,[2],99 % of control
Cn1c(Cl)c(/C=N\Nc2ccc([N+](=O)[O-])cc2[N+](=O)[O-])c2ccccc21,T/C,"dose: 100.0 mg/kg/injection, schedule: Q01DX001 (ip), vehicle: saline with Tween-80",92 % of control
same,T/C,"dose: 200.0 mg/kg/injection, schedule: Q01DX001 (ip), vehicle: saline with Tween-80",93 % of control
same,T/C,"dose: 400.0 mg/kg/injection, schedule: Q01DX001 (ip), vehicle: saline with Tween-80",91 % of control
C[C@H]1C(=O)CCC2[C@]3(C)CCC4(CO)[C@@H]5CC(C)(C)C(=O)C[C@]5(C)CC[C@]4(C)C3CC[C@@]21C (stereo not given in full),T/C,"dose: 7.75 mg/kg/injection, schedule: Q01DX005 (ip), vehicle: Klucel (hydroxypropylcellulose) (HPC)",98 % of control
same,T/C,"dose: 15.5 mg/kg/injection, schedule: Q01DX005 (ip), vehicle: Klucel (hydroxypropylcellulose) (HPC)",91 % of control
same,T/C,"dose: 31.0 mg/kg/injection, schedule: Q01DX005 (ip), vehicle: Klucel (hydroxypropylcellulose) (HPC)",89 % of control
COc1cc(N(CCCl)CCCl)ccc1C=Nc1ccccc1C(=O)O,T/C,"dose: 12.37 mg/kg/injection, schedule: Q04DX003 (ip), vehicle: saline with Tween-80",195 % of control
same,T/C,"dose: 18.75 mg/kg/injection, schedule: Q04DX003 (ip), vehicle: saline with Tween-80",181 % of control and 268 % of control
CCCCCCCCCCCCCCCCON,T/C,[8],103 % of control
same,T/C,[9],111 % of control
